Measured values as given in US9926281B2 (priority 2014, dated 2018).

Experiments:
[1] = molecular target: human MMP13 (Homo sapiens (Human), UniProt P45452); settings: read-out: hMMP-13 potency IC50
Description: Human MMP13 is preactivated by incubated the enzyme in the same buffer complemented with 1 mM freshly prepared p-Aminophenylmercuric acetate (AMPA) for 1 hour at 37° C.

[2] = molecular target: human TACE (Homo sapiens (Human), UniProt P78536); settings: read-out: TACE potency IC50
[3] = molecular target: human ADAMTS-5 (Homo sapiens (Human), UniProt Q9UNA0); settings: read-out: hADAMTS-5 potency IC50
Chain of human ADAMTS-5 (Q9UNA0 262-930): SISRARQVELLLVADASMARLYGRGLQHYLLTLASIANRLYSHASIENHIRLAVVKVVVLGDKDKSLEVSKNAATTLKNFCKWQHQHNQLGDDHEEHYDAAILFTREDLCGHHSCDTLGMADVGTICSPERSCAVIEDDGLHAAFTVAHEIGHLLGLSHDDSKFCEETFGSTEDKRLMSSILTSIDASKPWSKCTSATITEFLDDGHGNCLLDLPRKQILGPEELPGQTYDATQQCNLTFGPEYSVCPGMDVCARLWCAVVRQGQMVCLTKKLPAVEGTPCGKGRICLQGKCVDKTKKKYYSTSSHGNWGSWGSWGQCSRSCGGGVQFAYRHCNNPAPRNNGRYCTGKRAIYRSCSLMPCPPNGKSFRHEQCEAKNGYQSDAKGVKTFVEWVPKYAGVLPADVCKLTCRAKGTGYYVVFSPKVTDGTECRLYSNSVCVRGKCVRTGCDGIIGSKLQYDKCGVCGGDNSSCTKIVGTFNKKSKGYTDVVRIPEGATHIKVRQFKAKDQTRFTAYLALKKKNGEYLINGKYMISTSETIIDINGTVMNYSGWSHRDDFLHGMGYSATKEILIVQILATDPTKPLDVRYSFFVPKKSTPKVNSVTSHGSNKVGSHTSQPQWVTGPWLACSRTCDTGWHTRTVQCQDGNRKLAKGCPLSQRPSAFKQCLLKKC
Description: Finally, the fluorescence is read on the Envision (Perkin Elmer) after an incubation of 90 min at 37° C.

Chain of human TACE (P78536 whole entry, looked up, change not shown): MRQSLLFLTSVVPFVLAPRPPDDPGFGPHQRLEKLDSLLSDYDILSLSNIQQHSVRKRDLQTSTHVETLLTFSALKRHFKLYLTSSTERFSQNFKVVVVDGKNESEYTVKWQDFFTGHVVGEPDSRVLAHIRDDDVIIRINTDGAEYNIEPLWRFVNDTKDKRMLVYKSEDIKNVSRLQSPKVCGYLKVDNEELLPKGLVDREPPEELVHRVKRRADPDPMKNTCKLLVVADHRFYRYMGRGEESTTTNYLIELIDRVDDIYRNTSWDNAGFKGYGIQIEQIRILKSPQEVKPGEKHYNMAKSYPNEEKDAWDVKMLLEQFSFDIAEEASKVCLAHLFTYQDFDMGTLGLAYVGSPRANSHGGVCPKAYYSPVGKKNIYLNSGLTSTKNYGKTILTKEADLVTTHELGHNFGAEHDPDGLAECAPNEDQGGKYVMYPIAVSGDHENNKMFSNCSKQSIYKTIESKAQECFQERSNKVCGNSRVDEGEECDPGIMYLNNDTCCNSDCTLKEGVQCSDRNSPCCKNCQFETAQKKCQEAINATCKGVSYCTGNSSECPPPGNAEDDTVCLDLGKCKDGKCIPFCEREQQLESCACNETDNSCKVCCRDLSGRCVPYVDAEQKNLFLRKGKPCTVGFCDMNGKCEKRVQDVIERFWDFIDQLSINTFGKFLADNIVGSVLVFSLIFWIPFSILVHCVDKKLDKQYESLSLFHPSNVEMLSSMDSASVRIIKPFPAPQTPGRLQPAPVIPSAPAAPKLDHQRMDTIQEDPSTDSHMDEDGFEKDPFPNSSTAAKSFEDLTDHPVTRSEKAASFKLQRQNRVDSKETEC

Question: For `CN(C)Cc1ccc(C2(CCC(=O)N3CCN(c4cccc(Cl)c4)CC3)NC(=O)NC2=O)cc1` (centres unmarked) [compound 83, 5-[3-[4-(3-chlorophenyl)piperazin-1-yl]-3-oxo-propyl]-5-[4-(dimethylaminomethyl)phenyl]imidazolidine-2,4-dione], which IC50 [1] is on record?
Answer: > 4 µM

Question: What about the IC50 [2] of the same compound?
Answer: 2.49 µM

Question: With `CN(C)CC1(CCC(=O)N2CCN(c3cccc(Cl)c3)CC2)NC(=O)NC1=O` (centres unmarked) [compound 118, 5-[3-[4-(3-chlorophenyl)piperazin-1-yl]-3-oxo-propyl]-5-(dimethylaminomethyl)imidazolidine-2,4-dione] as the compound, how does the IC50 [1] read?
Answer: > 20 µM

Question: And the IC50 [2]?
Answer: > 4 µM

Question: Which results are given for `Cc1ccc(Cl)cc1N1CCN(C(=O)CCC2(CN(C)C)NC(=O)NC2=O)CC1` (centres unmarked) [compound 120, 5-[3-[4-(5-chloro-2-methyl-phenyl)piperazin-1-yl]-3-oxo-propyl]-5-(dimethylaminomethyl)imidazolidine-2,4-dione]?
Answer: IC50 [1]: > 20 µM; IC50 [2]: > 4 µM

Question: `CCC1(CCC(=O)N2CCN(c3cccc(Cl)c3)CC2)NC(=O)NC1=O` (centres unmarked) [compound 122, 5-[3-[4-(3-chlorophenyl)piperazin-1-yl]-3-oxo-propyl]-5-ethyl-imidazolidine-2,4-dione] was tested. Which IC50 [1] did it give?
Answer: > 20 µM

Question: What about the IC50 [2] of the same compound?
Answer: > 4 µM

Question: Which results are given for `CC1CN(C(=O)CCC2(c3cccnc3)NC(=O)NC2=O)CCN1c1cc(Cl)cc(Cl)c1` (centres unmarked) [compound 127, 5-[3-[4-(3,5-dichlorophenyl)-3-methyl-piperazin-1-yl]-3-oxo-propyl]-5-(3-pyridyl)imidazolidine-2,4-dione]?
Answer: IC50 [1]: > 20 µM; IC50 [2]: > 4 µM

Question: Which IC50 [1] does the source give for `CC1(CCC(=O)N2CCN(c3cc(F)cc(F)c3)CC2)NC(=O)NC1=O` (centres unmarked) [compound 140, 5-[3-[4-(3,5-difluorophenyl)piperazin-1-yl]-3-oxo-propyl]-5-methyl-imidazolidine-2,4-dione] here?
Answer: > 4 µM

Question: And the IC50 [2]?
Answer: > 20 µM

Question: For `O=C1NC(=O)C(CCC(=O)N2CCN(c3cccc(Cl)c3)CC2)(CN2CCOCC2)N1` (centres unmarked) [compound 155, 5-[3-[4-(3-chlorophenyl)piperazin-1-yl]-3-oxo-propyl]-5-(morpholinomethyl)imidazolidine-2,4-dione], which IC50 [1] is on record?
Answer: > 20 µM

Question: And the IC50 [2]?
Answer: > 20 µM

Question: What about the IC50 [3] of the same compound?
Answer: 1250 nM

Question: For `C[C@H]1CN(C(=O)CCC2(C)NC(=O)NC2=O)CCN1c1ccc(F)c(F)c1` (stereo partly drawn) [compound 165, 5-[3-[(3S)-4-(3,4-difluorophenyl)-3-methyl-piperazin-1-yl]-3-oxo-propyl]-5-methyl-imidazolidine-2,4-dione], which IC50 [1] is on record?
Answer: > 20 µM

Question: And the IC50 [2]?
Answer: > 20 µM

Question: What about the IC50 [3] of the same compound?
Answer: 207 nM

Question: What does the source list for `C[C@H]1CN(C(=O)CCC2(C)NC(=O)NC2=O)CCN1c1ccc(F)c(Cl)c1` (stereo partly drawn) [compound 166, 5-[3-[(3S)-4-(3-chloro-4-fluoro-phenyl)-3-methyl-piperazin-1-yl]-3-oxo-propyl]-5-methyl-imidazolidine-2,4-dione]?
Answer: IC50 [1]: > 20 µM; IC50 [2]: > 20 µM; IC50 [3]: 264 nM

Question: With `NCC1(CCC(=O)N2CCN(c3cccc(Cl)c3)CC2)NC(=O)NC1=O` (centres unmarked) [compound 171, 5-(aminomethyl)-5-[3-[4-(3-chlorophenyl)piperazin-1-yl]-3-oxo-propyl]imidazolidine-2,4-dione] as the compound, how does the IC50 [1] read?
Answer: > 4 µM

Question: What about the IC50 [2] of the same compound?
Answer: > 20 µM

Question: And the IC50 [3]?
Answer: 305 nM

Question: Which IC50 [1] does the source give for `O=C1NC(=O)C(CC(O)C(=O)N2CCN(c3cc(Cl)cc(Cl)c3)CC2)(C2CC2)N1` (centres unmarked) [compound 201, 5-cyclopropyl-5-[3-[4-(3,5-dichlorophenyl)piperazin-1-yl]-2-hydroxy-3-oxo-propyl]imidazolidine-2,4-dione] here?
Answer: > 20 µM

Question: And the IC50 [2]?
Answer: > 20 µM

Question: What about the IC50 [3] of the same compound?
Answer: 307 nM

Question: How did the IC50 [1] turn out when `CC1(CC(CO)C(=O)N2CCN(c3cc(Cl)cc(Cl)c3)CC2)NC(=O)NC1=O` (centres unmarked) [compound 220, 5-[3-[4-(3,5-dichlorophenyl)piperazin-1-yl]-2-(hydroxymethyl)-3-oxo-propyl]-5-methyl-imidazolidine-2,4-dione] was run?
Answer: > 4 µM

Question: What about the IC50 [2] of the same compound?
Answer: 0.245 µM

Question: What about the IC50 [3] of the same compound?
Answer: 18 nM

Question: How did the IC50 [1] turn out when `COCC1(CC(C)C(=O)N2CCN(c3cc(Cl)cc(Cl)c3)CC2)NC(=O)NC1=O` (centres unmarked) [compound 222, 5-[3-[4-(3,5-dichlorophenyl)piperazin-1-yl]-2-methyl-3-oxo-propyl]-5-(methoxymethyl)imidazolidine-2,4-dione] was run?
Answer: > 4 µM

Question: What about the IC50 [2] of the same compound?
Answer: 0.337 µM

Question: What about the IC50 [3] of the same compound?
Answer: 20 nM

Question: With `COCC1(CC(C)C(=O)N2CCN(c3cc(F)cc(F)c3)[C@@H](C)C2)NC(=O)NC1=O` (stereo partly drawn) [compound 225, 5-[3-[(3S)-4-(3,5-difluorophenyl)-3-methyl-piperazin-1-yl]-2-methyl-3-oxo-propyl]-5-(methoxymethyl)imidazolidine-2,4-dione] as the compound, how does the IC50 [1] read?
Answer: 3.94 µM

Question: What about the IC50 [2] of the same compound?
Answer: > 20 µM

Question: What about the IC50 [3] of the same compound?
Answer: 28 nM

Question: How did the IC50 [1] turn out when `CC(CC1(c2ccccn2)NC(=O)NC1=O)C(=O)N1CCN(c2cc(Cl)cc(Cl)c2)CC1` (centres unmarked) [compound 231, 5-[3-[4-(3,5-dichlorophenyl)piperazin-1-yl]-2-methyl-3-oxo-propyl]-5-(2-pyridyl)imidazolidine-2,4-dione] was run?
Answer: 0.766 µM

Question: And the IC50 [2]?
Answer: 0.106 µM

Question: And the IC50 [3]?
Answer: 20 nM

Question: How did the IC50 [1] turn out when `CCC(CC1(C)NC(=O)NC1=O)C(=O)N1CCN(c2cc(Cl)cc(Cl)c2)CC1` (centres unmarked) [compound 236, 5-[2-[4-(3,5-dichlorophenyl)piperazine-1-carbonyl]butyl]-5-methyl-imidazolidine-2,4-dione] was run?
Answer: 1.22 µM

Question: What about the IC50 [2] of the same compound?
Answer: 0.225 µM

Question: What about the IC50 [3] of the same compound?
Answer: 15 nM

Question: What does the source list for `O=C1NC(=O)C(CCC(=O)N2CCN(c3cc(Cl)cc(Cl)c3)CC2)(c2ccccn2)N1` (centres unmarked) [compound 407, 5-(3-(4-(3,5-dichlorophenyl)piperazin-1-yl)-3-oxopropyl)-5-(pyridin-2-yl)imidazolidine-2,4-dione]?
Answer: IC50 [1]: > 20 µM; IC50 [2]: 0.479 µM

Question: Which IC50 [1] does the source give for `C[C@H]1CN(C(=O)CCC2(C3CC3)NC(=O)NC2=O)CCN1c1ccc(Cl)c(Cl)c1` (stereo partly drawn) [compound 408, 5-cyclopropyl-5-(3-((S)-4-(3,4-dichlorophenyl)-3-methylpiperazin-1-yl)-3-oxopropyl)imidazolidine-2,4-dione] here?
Answer: > 4 µM

Question: And the IC50 [2]?
Answer: > 4 µM

Question: And the IC50 [3]?
Answer: 19 nM

Question: For `CC(CC1(C2CC2)NC(=O)NC1=O)C(=O)N1CCN(c2cc(Cl)cc(Cl)c2)CC1` (centres unmarked) [compound 409, 5-cyclopropyl-5-(3-(4-(3,5-dichlorophenyl)piperazin-1-yl)-2-methyl-3-oxopropyl)imidazolidine-2,4-dione], which IC50 [1] is on record?
Answer: 2.74 µM

Question: What about the IC50 [2] of the same compound?
Answer: 0.311 µM

Question: And the IC50 [3]?
Answer: 17 nM

Question: With `CC(CC1(C)NC(=O)NC1=O)C(=O)N1CCN(c2cc(Cl)cc(Cl)c2)CC1` (centres unmarked) [compound 410, 5-(3-(4-(3,5-dichlorophenyl)piperazin-1-yl)-2-methyl-3-oxopropyl)-5-methylimidazolidine-2,4-dione] as the compound, how does the IC50 [1] read?
Answer: > 4 µM

Question: And the IC50 [2]?
Answer: 0.17 µM

Question: And the IC50 [3]?
Answer: 22 nM

Question: Which results are given for `CC(CC1(C2CC2)NC(=O)NC1=O)C(=O)N1CCN(c2ccc(F)c(Cl)c2)[C@@H](C)C1` (stereo partly drawn) [compound 411, 5-(3-((S)-4-(3-chloro-4-fluorophenyl)-3-methylpiperazin-1-yl)-2-methyl-3-oxopropyl)-5-cyclopropylimidazolidine-2,4-dione]?
Answer: IC50 [1]: 0.865 µM; IC50 [2]: > 4 µM; IC50 [3]: 11 nM

Question: Which results are given for `CC(CC1(C2CC2)NC(=O)NC1=O)C(=O)N1CCN(c2ccc(Cl)cc2)[C@@H](C)C1` (stereo partly drawn) [compound 412, 5-(3-((S)-4-(4-chlorophenyl)-3-methylpiperazin-1-yl)-2-methyl-3-oxopropyl)-5-cyclopropylimidazolidine-2,4-dione]?
Answer: IC50 [1]: 0.433 µM; IC50 [2]: > 20 µM; IC50 [3]: 13 nM

Question: What does the source list for `CC(CC1(C2CC2)NC(=O)NC1=O)C(=O)N1CCN(c2cc(F)cc(Cl)c2)[C@@H](C)C1` (stereo partly drawn) [compound 413, 5-(3-((S)-4-(3-chloro-5-fluorophenyl)-3-methylpiperazin-1-yl)-2-methyl-3-oxopropyl)-5-cyclopropylimidazolidine-2,4-dione]?
Answer: IC50 [1]: 0.952 µM; IC50 [2]: > 4 µM; IC50 [3]: 11 nM

Question: For `C[C@H]1CN(C(=O)CC[C@@]2(C)NC(=O)NC2=O)CCN1c1ccc(Cl)c(Cl)c1` [compound 414, (R)-5-(3-((S)-4-(3,4-dichlorophenyl)-3-methylpiperazin-1-yl)-3-oxopropyl)-5-methylimidazolidine-2,4-dione], which IC50 [1] is on record?
Answer: > 4 µM

Question: What about the IC50 [2] of the same compound?
Answer: > 4 µM

Question: What about the IC50 [3] of the same compound?
Answer: 40 nM

Question: `CC(CC1(COCc2ccccc2)NC(=O)NC1=O)C(=O)N1CCN(c2cc(Cl)cc(Cl)c2)CC1` (centres unmarked) [compound 415, 5-(benzyloxymethyl)-5-(3-(4-(3,5-dichlorophenyl)piperazin-1-yl)-2-methyl-3-oxopropyl)imidazolidine-2,4-dione] was tested. Which IC50 [1] did it give?
Answer: 1.3 µM

Question: And the IC50 [2]?
Answer: 0.396 µM

Question: What about the IC50 [3] of the same compound?
Answer: 28 nM

Question: How did the IC50 [1] turn out when `C[C@H]1CN(C(=O)CC[C@@]2(C3CC3)NC(=O)NC2=O)CCN1c1ccc(Cl)c(Cl)c1` [compound 416, 5-cyclopropyl-5-(3-((S)-4-(3,4-dichlorophenyl)-3-methylpiperazin-1-yl)-3-oxopropyl)imidazolidine-2,4-dione] was run?
Answer: 2.88 µM

Question: And the IC50 [2]?
Answer: > 4 µM

Question: And the IC50 [3]?
Answer: 12 nM

Question: `CC(CC1(C)NC(=O)NC1=O)C(=O)N1CCN(c2cc(F)cc(Cl)c2)[C@@H](C)C1` (stereo partly drawn) [compound 418, 5-(3-((S)-4-(3-chloro-5-fluorophenyl)-3-methylpiperazin-1-yl)-2-methyl-3-oxopropyl)-5-methylimidazolidine-2,4-dione] was tested. Which IC50 [1] did it give?
Answer: > 4 µM

Question: And the IC50 [2]?
Answer: > 4 µM

Question: And the IC50 [3]?
Answer: 33 nM

Question: For `COCC1(CC(C)C(=O)N2CCN(c3cc(Cl)cc(Cl)c3C)[C@@H](C)C2)NC(=O)NC1=O` (stereo partly drawn) [compound 430, 5-(3-((S)-4-(3,5-dichloro-2-methylphenyl)-3-methylpiperazin-1-yl)-2-methyl-3-oxopropyl)-5-(methoxymethyl)imidazolidine-2,4-dione], which IC50 [1] is on record?
Answer: > 20 µM

Question: What does the source list for `COCC1(CC(C)C(=O)N2CCN(c3ccc(Cl)c(C(F)(F)F)c3)[C@@H](C)C2)NC(=O)NC1=O` (stereo partly drawn) [compound 478, 5-{3-[(S)-4-(4-Chloro-3-trifluoromethyl-phenyl)-3-methyl-piperazin-1-yl]-2-methyl-3-oxo-propyl}-5-methoxymethyl-imidazolidine-2,4-dione]?
Answer: IC50 [2]: > 4 µM; IC50 [3]: 61 nM
